How the values were obtained:
[1] = test system: Vascular smooth muscle cells; test: DNA synthesis by [3H]-thymidine incorporation in rat vascular smooth muscle cells; format: cell-based; details: between 12 and 24 hours after stimulation, control 17614 +/- 1714 cpm
Protocol: DNA synthesis was assayed by [^3H]-thymidine incorporation as described in Grainger et al., Biochem. J., 277:145-151, 1991. Vascular smooth muscle cells were subcultured, grown in DMEM + 10% FCS for 24 hours, made quiescent in serum-free DMEM for 48 hours and restimulated with 10% FCS at "0" hours. [^3H]-thymidine (5 microcuries/ml; available from Amersham International) was added 12 hours after restimulation and the cells were harvested after 24 hours. DNA synthesis by adventitial fibroblasts was determined similarly, except that the cells were made quiescent in serum-free DMEM for 24 hours.

[2] = test system: mink lung endothelial (MvLu) cells; test: DNA synthesis of MvLu cells, direct addition of agent; format: cell-based; details: 50 micromolar in fresh DMEM + 10% FCS
Protocol: Assays for TGF-Beta. The TGF-beta activity present in medium conditioned on various cells was determined by DNA synthesis assay on mink lung […] (MvLu) cells; a modification of the assay described in Danielpour et al., J. Cell. Physiol., 138: 79-83, 1989. MvLu cells were subcultured at 1:5 dilution in DMEM + 10% FCS. After 24 hours, the medium was replaced with the conditioned medium to be tested in the absence or presence of the neutralizing antiserum to TGF-beta at 10 micrograms/ml. DNA synthesis during a 1 hour pulse of [^3H]-thymidine (5 microcuries/ml) was determined 23 hours after addition of the test medium. TGF-beta activity was calculated as the proportion of the inhibition of DNA synthesis which was reversed in the presence of neutralizing antibody, using a standard curve to convert the inhibition values into quantities of TGF-beta. The TGF-beta1 standards and conditioned media both contained 10% FCS in DMEM.

[3] = Proliferation of enzyme-dispersed (ED) human VSMC cultures; format: cell-based; details: human, aortic vsmc ed cultures, cell counting, read-out: concentrations that caused cell death
Protocol: (§1) Human aortic VSMC cultures. Adult human VSMC were obtained from 6 transplant donors (either sex, age range from 3 to 54 years) using the enzyme dispersal or explant technique. In one case, the same donor (a person) was used to establish both an enzyme-dispersed (ED) and explant-derived (EX) cell culture. Prior to enzyme-dispersion or explanting treatment, human aortas were obtained within 18 h of death. The endothelium layer was removed with a scalpel blade and strips of smooth muscle cells (tunica media) were removed with forceps and chopped into small pieces (1 mm^3).
(§2) ED Cultures. The aortic pieces were washed once with serum-free Hanks Balanced Salt Solution, then enzyme-dispersed with collagenase and elastase, as described in Example 7. The cells were plated at an initial density of 1.5 x 10^5 cells/cm^2 and incubated in a humidified atmosphere at 37°C in 5% CO2 in air. The cells were subcultured every 6-7 days (at stationary phase) by releasing them with trypsin/EDTA and diluting them 1:1.5 in D-MEM + 10% FCS. Subcultured ED cells were cultured with D-MEM + 20% FCS 24 h after plating, and thereafter at 48 h intervals.
(§3) Cell counting, DNA synthesis assays and assays for total and active TGF-beta were performed as described in Example 7.

human ED cultures = test: as above; format: cell-based; details: 96 h, cell counting
Protocol: as §1, §2, §3

[4] = test system: B054 cells (baboon smooth muscle cells); test: cells; format: cell-based
[5] = test system: vascular smooth muscle cells; format: in vivo, pig; details: 4 days post-trauma
[6] = test system: Vascular smooth muscle cells (BO54); test: Scratch-migration assay with morphological toxicity grading; format: cell-based, baboon; parameters: key: - = no migration; +1 = minimal; +2 = mild; +3 = moderate; +4 = marked (maximum density; limit of cell contact inhibition) migration
Protocol: Scratch assays to determine the extent of smooth muscle cell migration inhibition by cytochalasin B were performed in accordance with the following protocol:
Vascular smooth muscle cells (BO54) were derived from explants of baboon aortic smooth muscle, as described in Example 1. The cells were grown in flat bottom, six well tissue culture plates, which hold about 5 ml of medium. The vascular smooth muscle cells were plated at 200,000 cells/well and placed at 37°C in a humidified 5% CO2 incubator for 18 hours. The wells were then scratched with a sterile portion of a single edge razor blade that was held by clamp or pliers and was brought aseptically into contact with the bottom of the well at a 90° angle. The cells from a small area along the scratch were removed by a sterile cotton tipped applicator while the blade was in contact with the bottom of the well. After incubation, the presence of cells in the "scratched" area is indicative of cell migration across the scratch line.
Briefly, a stock solution of cytochalasin B (Sigma Chemical Co.) in dimethyl sulfoxide (DMSO) at 1 mg/ml was prepared. Test dilutions of cytochalasin B or control medium were added. Each experiment included two sets of plates: • A set: Test agent exposure for 1, 3, 6, 8 and 10 days only; and • B set: Test agent exposure for 1, 3, 6, 8 and 10 days, followed by a seven day recovery time with control medium. Both sets of plates were fixed (10% formalin in PBS) and stained (0.02% crystal violet) at the end of the timed exposures. Test concentrations for cytochalasin B were 1, 0.1 and 0.01 µg/ml, and a negative medium control was included. Fresh medium and drug were supplied 3 times per week.
In this Table, "M" indicates Migration Grade, wherein - = no migration; +1 = minimal; +2 = mild; +3 = moderate; and +4 = marked (maximum density; limit of cell contact inhibition) migration of vascular smooth muscle cells into the cleared area adjacent to the scratch. In this Table, "T" denotes a morphological Toxicity Grade, wherein - = no toxicity; +1 = minimal; +2 = mild; +3 = moderate; and +4 = marked toxicity. The migration results are expressed as "Grade in the Cleared Area of the Well / Grade in an Undisturbed Region of the Well." The toxicity values represent a grade for all cells in each well.

CC/C(=C(\c1ccccc1)c1ccc(OCCN(C)C)cc1)c1ccccc1 [tamoxifen, trans-2-[4-(1,2-diphenyl-1-butenyl)phenoxy]-N,N-dimethylethylamine]
DNA synthesis, [3H]-thymidine incorporation ([1]; 10 micromolar): 16898 +/- 3417 cpm | DNA synthesis, [3H]-thymidine incorporation ([1]; 50 micromolar): 18002 +/- 4167 cpm | effect on DNA synthesis of MvLu cells [2]: no effect on DNA synthesis | MCC at 96 h [3]: > 33 µM | concentrations that did not affect the rate of proliferation (human ED cultures): below 10 µM

cytochalasin B
minimum effective dose (MED), DNA assay ([4]; 5 minute exposure): 10 µg/mL | minimum effective dose (MED), DNA synthesis assay ([4]; 24 hour exposure): 0.1 µg/mL | BRDU labeling grade [5]: 4 (4 = > 10/HPF) | morphological Toxicity Grade ([6]; 7-day Recovery Post Exposure, 1.0 µg/mL, Day 1): +2 | morphological Toxicity Grade ([6]; 7-day Recovery Post Exposure, 1.0 µg/mL, Day 3): +1 | morphological Toxicity Grade ([6]; 7-day Recovery Post Exposure, 1.0 µg/mL, Day 6): +3 | morphological Toxicity Grade ([6]; 7-day Recovery Post Exposure, 1.0 µg/mL, Day 8): +3 | morphological Toxicity Grade ([6]; 7-day Recovery Post Exposure, 1.0 µg/mL, Day 10): +3 | morphological Toxicity Grade ([6]; Continuous Exposure, 0.1 µg/mL, Day 3): +1 | morphological Toxicity Grade ([6]; Continuous Exposure, 0.1 µg/mL, Day 6): +1 | morphological Toxicity Grade ([6]; Continuous Exposure, 0.1 µg/mL, Day 8): +1 | morphological Toxicity Grade ([6]; Continuous Exposure, 0.1 µg/mL, Day 10): +1 | morphological Toxicity Grade ([6]; Continuous Exposure, 1.0 µg/mL, Day 1): +3 | morphological Toxicity Grade ([6]; Continuous Exposure, 1.0 µg/mL, Day 3): +3

— EP1510220B1 (priority 1993, dated 1994)
